Assay results: patent publication US10238631B2, “Sesquiterpene derivatives and their use in inflammation or cancer treatment” (Academia Sinica, priority 2014, dated 2019)
Read-outs that look alike come from different tables or passages of the source.

How the values were obtained:
[1] = test system: TS/A (ER+, Her2−) murine mammary cancer cells; assay: MTT cell viability assay, TS/A cells; format: cell-based; conditions: Mus musculus, 24 h, read-out: IC50 on cell viability, TS/A (ER+, Her2−)
Description: (§1) Normal or cancer cells (2×10^3 to 1×10^4 cells/well) were seeded in 96-well plate for overnight and treated with different compounds for 24 h to 72 h. Cells growth were determined by MTT-based colorimetric assays according to. Viability of the test cells treated with vehicle (0.5% DMSO) only was defined as 100% viable. Survival of cells after treatment with DETDs was calculated using the following formula: viable cell number (%)=OD570 (treated cell culture)/OD570 (vehicle control)×100.
(§2) Sixty DETDs were derived from parental compound […] and tested for anti-breast cancer cell activity.

[2] = test system: MDA-MB-231 (ER−, PR−, Her2−) human breast cancer cells; assay: MTT cell viability assay, MDA-MB-231 cells; format: cell-based; conditions: Homo sapiens, MDA-MB-231, 24 h, read-out: IC50 on cell viability, MDA-MB-231 (ER−, PR−, Her2−)
Description: as §1, §2

[3] = test system: MCF-7 (ER+, Her2−) human breast cancer cells; assay: MTT cell viability assay, MCF-7 cells; format: cell-based; conditions: MCF7, 24 h, read-out: IC50 on cell viability, MCF-7 (ER+, Her2−)
Description: as §1, §2

[4] = test system: M10 normal mammary epithelial cells; assay: MTT cell viability assay, M10 normal cells; format: cell-based, human; conditions: Homo sapiens, Epithelial cell, 24 h
Description: as §1, §2

[5] = test system: B16-F10 (NRAS mutation); assay: MTT cell viability assay, B16-F10 melanoma; format: cell-based; conditions: Mus musculus, B16-F10, 24 h, read-out: IC50 on cell viability, B16-F10 (NRAS mutation)
Description: as §1
(§3) Several genes are involved in melanoma development and pathology; specifically, mutation in V-raf murine sarcoma viral oncogene homolog B1 (B-RAF) occurs approximately 50-60% and in neuroblastoma RAS viral oncogene homolog (N-RAS) occurs about 30% of malignant melanomas. A spectrum of wild-type or mutated melanoma cell lines including B16-F10, MeWo, A375, A2058, HTB-68, and melanocyte were used to study anti-melanoma cell proliferation activity of parental phytocompound DET and newly synthesized DETDs.

[6] = test system: MeWo (No NRAS or BRAF mutation); assay: MTT cell viability assay, MeWo melanoma; format: cell-based, human; conditions: Homo sapiens, MeWo, 24 h
Description: as §1, §3

[7] = test system: HTB-68 (NRAS mutation); assay: MTT cell viability assay, HTB-68 melanoma; format: cell-based, human; conditions: Homo sapiens, 24 h
Description: as §1, §3

[8] = test system: A2058 (BRAF mutation); assay: MTT cell viability assay, A2058 melanoma; format: cell-based, human; conditions: Homo sapiens, A2058, 24 h
Description: as §1, §3

[9] = test system: A375 (BRAF mutation); assay: MTT cell viability assay, A375 melanoma; format: cell-based, human; conditions: Homo sapiens, A-375, 24 h, read-out: IC50 on cell viability, A375 (BRAF mutation)
Description: as §1, §3
To investigate whether or not DETD-35 show synergism with PLX4032 against A375 melanoma cells, we performed anti-proliferation assay using MTT reagent to obtain IC50 of each compound. […] The synergistic effect was quantified by combination index (CI) analysis as stated above.

[10] = test system: Melanocyte (Normal cells); assay: MTT cell viability assay, normal melanocytes; format: cell-based, human; conditions: Homo sapiens, Melanocyte, 24 h
Description: as §1, §3

[11] = test system: RAW264.7 (normal macrophage); assay: MTT cell viability assay, RAW264.7 macrophages; format: cell-based, mouse; conditions: Mus musculus, RAW264.7, 24 h
Description: as §1
(§4) Marcophages (2×10^5 cells/well in 96-well plate) were treated with compounds for 1 h, then incubated further for 24 h with or without the presence of […] LPS in the cultural medium. Nitrite levels in cell culture medium were determined by the Griess reaction method. In parallel to the Griess assays, macrophage cell viabilities were determined using the MTT based colorimetric assay.

[12] = test system: LPS-induced nitric oxide (NO) production in RAW 264.7 cells; assay: Nitric oxide production in LPS-stimulated macrophages (Griess); format: cell-based, mouse; conditions: Mus musculus; LPS-stimulated RAW264.7, nitrite 24 h after LPS
Description: as §4
LPS from the outer membrane of Gram-negative bacteria can induce mRNA or protein levels of inducible nitric oxide synthase (iNOS), which catalyzes oxidative deamination of L-arginine to produce nitric oxide (NO). Once NO is predominantly produced, it interacts with superoxide anion and generates highly reactive oxidants resulting in cellular inflammation, DNA, protein and tissue damages, carcinogenesis, and antiapoptosis. We used in vitro LPS stimulated inflammation in RAW264.7 cell system to evaluate the effect of DET and its derivatives DETDs on NO production by determination of nitrite level (equivalent to NO level) in culture medium 24 h after LPS treatment.

| IC50 [1] | IC50 [2] | IC50 [3] | IC50 ([5]; 24 h) | IC50 [6] | IC50 [7] | IC50 [8] | IC50 ([9]; 24 h, MTT) | IC50 [12] | SMILES | IC50 [4] | IC50 [10] | IC50 [11] | IC50 [5] | IC50 [9] |
| --- | --- | --- | --- | --- | --- | --- | --- | --- | --- | --- | --- | --- | --- | --- |
| 6200 nM | > 7.5 µM | > 7.5 µM | > 10 µM | > 10 µM | > 10 µM | > 10 µM | > 10 µM | 5000 nM | C=C(C)C(=O)O[C@H]1CC2=C[C@@H](C/C(C)=C/[C@H]3OC(=O)[C@@H](CN(C)C)[C@H]13)OC2=O [DETD-1] | > 7.5 µM | > 10 µM | > 10 µM | – | – |
| 7500 nM | > 7.5 µM | > 7.5 µM | > 10 µM | > 10 µM | > 10 µM | > 10 µM | > 10 µM | > 10000 nM | C=C1C(=O)OC2CC3=C[C@@H](C/C(C)=C/C(O)[C@H]12)OC3=O (some centres unmarked) [DETD-3] | > 7.5 µM | > 10 µM | > 10 µM | – | – |
| 1800 nM | 6.2 µM | 3.4 µM | 4.5 µM | > 10 µM | > 10 µM | > 10 µM | > 10 µM | 2200 nM | C=C(C)C(=O)OC1/C=C(\C)C[C@@H]2C=C(CC3OC(=O)C(=C)[C@@H]13)C(=O)O2 (some centres unmarked) [DETD-4] | > 7.5 µM | > 10 µM | > 10 µM | – | – |
| 1600 nM | 4.6 µM | 2.4 µM | 4.7 µM | > 10 µM | 7.8 µM | 5.8 µM | 4.1 µM | 2400 nM | C=C1C(=O)OC2CC3=C[C@@H](C/C(C)=C/C(OC(=O)/C(C)=C/CC)[C@H]12)OC3=O (some centres unmarked) [DETD-5] | > 7.5 µM | > 10 µM | > 10 µM | – | – |
| 1800 nM | 6.1 µM | 2.3 µM | 4.8 µM | > 10 µM | 8.4 µM | 5.5 µM | 4.9 µM | 2200 nM | C=C1C(=O)OC2CC3=C[C@@H](C/C(C)=C/C(OC(=O)/C=C/c4cc(OC)c(OC)c(OC)c4)[C@H]12)OC3=O (some centres unmarked) [DETD-7] | > 7.5 µM | > 10 µM | > 10 µM | – | – |
| 1900 nM | 6.7 µM | 3.4 µM | 6.8 µM | > 10 µM | > 10 µM | > 10 µM | > 10 µM | 2500 nM | C=C1C(=O)OC2CC3=C[C@@H](C/C(C)=C/C(OC(=O)C=C(C)C)[C@H]12)OC3=O (some centres unmarked) [DETD-8] | > 7.5 µM | > 10 µM | > 10 µM | – | – |
| > 7500 nM | > 7.5 µM | > 7.5 µM | > 10 µM | > 10 µM | > 10 µM | > 10 µM | > 10 µM | > 10000 nM | C=C1C(=O)OC2CC3=C[C@@H](C/C(C)=C/C(OC(=O)C(Cl)Cl)[C@H]12)OC3=O (some centres unmarked) [DETD-9] | > 7.5 µM | > 10 µM | > 10 µM | – | – |
| 2700 nM | 5.9 µM | 3.4 µM | 6 µM | > 10 µM | > 10 µM | > 10 µM | > 10 µM | 1800 nM | C=C1C(=O)OC2CC3=C[C@@H](C/C(C)=C/C(OC(=O)CC(C)C)[C@H]12)OC3=O (some centres unmarked) [DETD-10] | > 7.5 µM | > 10 µM | > 10 µM | – | – |
| 3300 nM | 7 µM | 4.2 µM | 7.2 µM | > 10 µM | > 10 µM | > 10 µM | > 10 µM | 3200 nM | C=C1C(=O)OC2CC3=C[C@@H](C/C(C)=C/C(OC(=O)/C=C(\C)C(C)C)[C@H]12)OC3=O (some centres unmarked) [DETD-12] | > 7.5 µM | > 10 µM | > 10 µM | – | – |
| 1900 nM | 7.5 µM | 3.7 µM | 7.1 µM | > 10 µM | > 10 µM | > 10 µM | > 10 µM | 2000 nM | C=C1C(=O)OC2CC3=C[C@@H](C/C(C)=C/C(OC(=O)C(C)CC)[C@H]12)OC3=O (some centres unmarked) [DETD-13] | > 7.5 µM | > 10 µM | > 10 µM | – | – |
| > 7500 nM | > 7.5 µM | > 7.5 µM | > 10 µM | > 10 µM | > 10 µM | > 10 µM | > 10 µM | 2200 nM | C=C1C(=O)OC2CC3=C[C@@H](C/C(C)=C/C(OC(=O)C=C(C)CCC=C(C)C)[C@H]12)OC3=O (some centres unmarked) [DETD-14] | > 7.5 µM | > 10 µM | > 10 µM | – | – |
| 2100 nM | 7 µM | 3.9 µM | > 10 µM | > 10 µM | > 10 µM | > 10 µM | > 10 µM | 3200 nM | C=C1C(=O)OC2CC3=C[C@@H](C/C(C)=C/C(OC(=O)C(CC)CC)[C@H]12)OC3=O (some centres unmarked) [DETD-16] | > 7.5 µM | > 10 µM | > 10 µM | – | – |
| 3300 nM | 5.5 µM | 2.6 µM | 8.4 µM | > 10 µM | > 10 µM | > 10 µM | > 10 µM | 3400 nM | C=C1C(=O)OC2CC3=C[C@@H](C/C(C)=C/C(OC(=O)CC(C)CC)[C@H]12)OC3=O (some centres unmarked) [DETD-18] | > 7.5 µM | > 10 µM | > 10 µM | – | – |
| 1700 nM | 4.6 µM | 3.5 µM | 7.8 µM | > 10 µM | > 10 µM | > 10 µM | > 10 µM | 3800 nM | C=C(CC)C(=O)OC1/C=C(\C)C[C@@H]2C=C(CC3OC(=O)C(=C)[C@@H]13)C(=O)O2 (some centres unmarked) [DETD-19] | > 7.5 µM | > 10 µM | > 10 µM | – | – |
| 2600 nM | 5.2 µM | 4.6 µM | 3.9 µM | > 10 µM | 9.5 µM | – | 5.1 µM | 1700 nM | C=C1C(=O)OC2CC3=C[C@@H](C/C(C)=C/C(OC(=O)C4CCCCC4)[C@H]12)OC3=O (some centres unmarked) [DETD-38] | > 7.5 µM | > 10 µM | > 10 µM | – | – |

| SMILES | IC50 [1] | IC50 [2] | IC50 [3] | IC50 ([5]; 24 h) | IC50 [6] | IC50 [7] | IC50 [8] | IC50 ([9]; 24 h, MTT) | IC50 [12] | IC50 [4] | IC50 [10] | IC50 [11] | IC50 [5] | IC50 [9] |
| --- | --- | --- | --- | --- | --- | --- | --- | --- | --- | --- | --- | --- | --- | --- |
| C=C1C(=O)OC2CC3=C[C@@H](C/C(C)=C/C(OC(=O)CC(C)(CC)OC(C)=O)[C@H]12)OC3=O (some centres unmarked) [DETD-11] | 2900 nM | > 7.5 µM | 4.2 µM | – | > 10 µM | > 10 µM | > 10 µM | – | 2300 nM | > 7.5 µM | > 10 µM | > 10 µM | > 10 µM | > 10 µM |
| C=C1C(=O)OC2CC3=C[C@@H](C/C(C)=C/C(OC(C)=O)[C@H]12)OC3=O (some centres unmarked) [DETD-17] | 3500 nM | > 7.5 µM | 6.7 µM | – | > 10 µM | > 10 µM | > 10 µM | – | 2000 nM | > 7.5 µM | > 10 µM | > 10 µM | > 10 µM | > 10 µM |
